This is an account of results in patent EP4563146A1 (IRBM S.P.A., priority 2023, dated 2025).

pEC50: −log10 of the molar value.

The subject of the first experiment is ZIKV replicon. The experiment can be described thus: ZIKV replication inhibition assay (NanoLuc replicon in Vero cells). The settings on record: Zika virus, Vero, 72 h, read-out: ZIKA Cell_Nanoluc.
`COc1ncc(-c2ccc(C[n+]3cc([N-]C(=O)Nc4cc(NC(=O)CC5CCCCC5)cc(C(F)(F)F)c4)on3)cc2)c(C)n1` [Example 8]: the pEC50 is 4.70 to 6.00. As for `COc1ncc(-c2ccc(C[n+]3cc([N-]C(=O)Nc4cc(NC(C)=O)cc(C(F)(F)F)c4)on3)cc2)c(C)n1` [Example 11], the pEC50 is 4.70 to 6.00. Regarding `COc1ncc(-c2ccc(C[n+]3cc([N-]C(=O)Nc4cc(NC(=O)C5CCCC5)cc(C(F)(F)F)c4)on3)cc2)c(C)n1` [Example 18], the pEC50 was 6.00 to 7.00. For `O=C([N-]c1c[n+](Cc2ccccn2)no1)Nc1cc(NC(=O)c2ccc(CN3CCOCC3)o2)cc(C(F)(F)F)c1` [Example 30], the pEC50 is 4.70 to 6.00. In the case of `O=C([N-]c1c[n+](Cc2ccccn2)no1)Nc1cc(NC(=O)c2cccc(Oc3ccccc3)c2)cc(C(F)(F)F)c1` [Example 31], the pEC50 was 4.70 to 6.00. Regarding `CC(C(=O)Nc1cc(NC(=O)[N-]c2c[n+](Cc3ccccn3)no2)cc(C(F)(F)F)c1)c1ccccc1` (stereo not drawn) [Example 32], the pEC50 was 6.00 to 7.00. With `Cc1oc(-c2ccccc2)nc1CC(=O)Nc1cc(NC(=O)[N-]c2c[n+](Cc3ccccn3)no2)cc(C(F)(F)F)c1` [Example 33], the pEC50 was 4.70 to 6.00. In the case of `O=C([N-]c1c[n+](Cc2ccccn2)no1)Nc1cc(NC(=O)c2ccnn2-c2ccccc2)cc(C(F)(F)F)c1` [Example 34], the pEC50 was 4.70 to 6.00. Take `O=C([N-]c1c[n+](Cc2ccccn2)no1)Nc1cc(NC(=O)c2cnn(Cc3ccccc3)c2)cc(C(F)(F)F)c1` [Example 35]: the pEC50 was 4.70 to 6.00.

For `O=C(Cc1c[nH]c2cccnc12)Nc1cc(NC(=O)[N-]c2c[n+](Cc3ccccn3)no2)cc(C(F)(F)F)c1` [Example 36], the pEC50 is 4.70 to 6.00. The same measure, in the same setting: for `N#Cc1ccc2nc(C(=O)Nc3cc(NC(=O)[N-]c4c[n+](Cc5ccccn5)no4)cc(C(F)(F)F)c3)cn2c1` [Example 37] the value was 4.70 to 6.00; for `CN1Cc2cc(C(=O)Nc3cc(NC(=O)[N-]c4c[n+](Cc5ccccn5)no4)cc(C(F)(F)F)c3)sc2C1` [Example 39], 4.70 to 6.00.

Still in this experiment, the particulars now being: Zika virus, Vero, 72 h, read-out: ZIKA Cell_Nanoluc, Vero cells with stable ZIKV replicon, 72 h, Nano-Glo readout.
With `COc1ncc(-c2ccc(C[n+]3cc([N-]C(=O)Nc4cc(NS(=O)(=O)CC5CCCCC5)cc(C(F)(F)F)c4)on3)cc2)c(C)n1` [Example 2, ((3-((Cyclohexylmethyl)sulfonamido)-5-(trifluoromethyl)phenyl)carbamoyl)(3-(4-(2-methoxy-4-methylpyrimidin-5-yl)benzyl)-1,2,3-oxadiazol-3-ium-5-yl)amide], the pEC50 was under 4.70.

In the case of `COc1ncc(-c2ccc(C[n+]3cc([N-]C(=O)Nc4cc(N)cc(C(F)(F)F)c4)on3)cc2)c(C)n1` [Example 3, ((3-Amino-5-(trifluoromethyl)phenyl)carbamoyl)(3-(4-(2-methoxy-4-methylpyrimidin-5-yl)benzyl)-1,2,3-oxadiazol-3-ium-5-yl)amide], the pEC50 is 6.00 to 7.00.

For `C[n+]1cc([N-]C(=O)Nc2cc(NC(=O)Cc3ccccc3)cc(C(F)(F)F)c2)on1` [Example 4, (3-Methyl-1,2,3-oxadiazol-3-ium-5-yl)((3-(2-phenylacetamido)-5-(trifluoromethyl)phenyl)carbamoyl)amide], the pEC50 was 4.70 to 6.00. Regarding `NCc1ccccc1-c1ccc(C[n+]2cc([N-]C(=O)Nc3cc(NC(=O)Cc4ccccc4)cc(C(F)(F)F)c3)on2)nc1` [Example 5, (3-((5-(2-(Aminomethyl)phenyl)pyridin-2-yl)methyl)-1,2,3-oxadiazol-3-ium-5-yl)((3-(2-phenylacetamido)-5-(trifluoromethyl)phenyl)carbamoyl)amide], the pEC50 was 4.70 to 6.00. On the same count and under the same terms, to `Cn1cncc1-c1ccc(C[n+]2cc([N-]C(=O)Nc3cc(NC(=O)Cc4ccccc4)cc(C(F)(F)F)c3)on2)nc1` [Example 6, (3-((5-(1-Methyl-1H-imidazol-5-yl)pyridin-2-yl)methyl)-1,2,3-oxadiazol-3-ium-5-yl)((3-(2-phenylacetamido)-5-(trifluoromethyl)phenyl)carbamoyl)amide] belongs 4.70 to 6.00. Take `O=C(Cc1ccccc1)Nc1cc(NC(=O)[N-]c2c[n+](Cc3ccccn3)no2)cc(C(F)(F)F)c1` [Example 7, ((3-(2-Phenylacetamido)-5-(trifluoromethyl)phenyl)carbamoyl)(3-(pyridin-2-ylmethyl)-1,2,3-oxadiazol-3-ium-5-yl)amide]: the pEC50 was 6.00 to 7.00. `COc1ncc(-c2ccc(C[n+]3cc([N-]C(=O)Nc4cc(NC(=O)CCc5ccccc5)cc(C(F)(F)F)c4)on3)cc2)c(C)n1` [Example 9, (3-(4-(2-Methoxy-4-methylpyrimidin-5-yl)benzyl)-1,2,3-oxadiazol-3-ium-5-yl)((3-(3-phenylpropanamido)-5-(trifluoromethyl)phenyl)carbamoyl)amide]: the pEC50 was 6.00 to 7.00. Same read-out and setting: for `COc1ncc(-c2ccc(C[n+]3cc([N-]C(=O)Nc4cc(NS(=O)(=O)Cc5ccccc5)cc(C(F)(F)F)c4)on3)cc2)c(C)n1` [Example 10, (3-(4-(2-Methoxy-4-methylpyrimidin-5-yl)benzyl)-1,2,3-oxadiazol-3-ium-5-yl)((3-((phenylmethyl)sulfonamido)-5-(trifluoromethyl)phenyl)carbamoyl)amide] the value was 6.00 to 7.00; for `O=C(Cc1ccccc1)Nc1cc(NC(=O)[N-]c2c[n+](Cc3ccc(Br)cn3)no2)cc(C(F)(F)F)c1` [Example 12, (3-((5-Bromopyridin-2-yl)methyl)-1,2,3-oxadiazol-3-ium-5-yl)((3-(2-phenylacetamido)-5-(trifluoromethyl)phenyl)carbamoyl)amide], 6.00 to 7.00; for `COc1ncc(-c2ccc(C[n+]3cc([N-]C(=O)Nc4cc(NC(=O)Cc5ccccc5)cc(C(F)(F)F)c4)on3)nc2)c(C)n1` [Example 13, (3-((5-(2-Methoxy-4-methylpyrimidin-5-yl)pyridin-2-yl)methyl)-1,2,3-oxadiazol-3-ium-5-yl)((3-(2-phenylacetamido)-5-(trifluoromethyl)phenyl)carbamoyl)amide], 6.00 to 7.00. Turning to `O=C(Cc1ccccc1)Nc1cc(NC(=O)[N-]c2c[n+](Cc3ccc(-c4cccc5c4CNC5)cn3)no2)cc(C(F)(F)F)c1` [Example 14, (3-((5-(Isoindolin-4-yl)pyridin-2-yl)methyl)-1,2,3-oxadiazol-3-ium-5-yl)((3-(2-phenylacetamido)-5-(trifluoromethyl)phenyl)carbamoyl)amide], the pEC50 was 4.70 to 6.00.

As for `COc1ccc(CC(=O)Nc2cc(NC(=O)[N-]c3c[n+](Cc4ccc(-c5cnc(OC)nc5C)cc4)no3)cc(C(F)(F)F)c2)cc1` [Example 16, (3-(4-(2-Methoxy-4-methylpyrimidin-5-yl)benzyl)-1,2,3-oxadiazol-3-ium-5-yl)((3-(2-(4-methoxyphenyl)acetamido)-5-(trifluoromethyl)phenyl)carbamoyl)amide], the pEC50 was 4.70 to 6.00. Consider `COc1ncc(-c2ccc(C[n+]3cc([N-]C(=O)Nc4cc(NC(=O)Cc5cccnc5)cc(C(F)(F)F)c4)on3)cc2)c(C)n1` [Example 19, (3-(4-(2-Methoxy-4-methylpyrimidin-5-yl)benzyl)-1,2,3-oxadiazol-3-ium-5-yl)((3-(2-(pyridin-3-yl)acetamido)-5-(trifluoromethyl)phenyl)carbamoyl)amide], for which the pEC50 is 4.70 to 6.00. For the compound `COc1ncc(-c2ccc(C[n+]3cc([N-]C(=O)Nc4cc(NC(=O)Cc5ccccc5Cl)cc(C(F)(F)F)c4)on3)cc2)c(C)n1` [Example 21, ((3-(2-(2-Chlorophenyl)acetamido)-5-(trifluoromethyl)phenyl)carbamoyl)(3-(4-(2-methoxy-4-methylpyrimidin-5-yl)benzyl)-1,2,3-oxadiazol-3-ium-5-yl)amide], the pEC50 was 6.00 to 7.00.

On to `Cc1noc(C)c1-c1ccc([C@H](CN)[n+]2cc([N-]C(=O)Nc3cc(NC(=O)Cc4ccccc4)cc(C(F)(F)F)c3)on2)cc1` [Example 23, (R)-(3-(2-Amino-1-(4-(3,5-dimethylisoxazol-4-yl)phenyl)ethyl)-1,2,3-oxadiazol-3-ium-5-yl)((3-(2-phenylacetamido)-5-(trifluoromethyl)phenyl)-carbamoyl)amide], for which the pEC50 is 4.70 to 6.00. `Cc1noc(C)c1-c1ccc([C@@H](CN)[n+]2cc([N-]C(=O)Nc3cc(NC(=O)Cc4ccccc4)cc(C(F)(F)F)c3)on2)cc1` [Example 24, (S)-(3-(2-Amino-1-(4-(3,5-dimethylisoxazol-4-yl)phenyl)ethyl)-1,2,3-oxadiazol-3-ium-5-yl)((3-(2-phenylacetamido)-5-(trifluoromethyl)phenyl)carbamoyl)amide]: the pEC50 is 4.70 to 6.00. With `Cc1nc(N)ncc1-c1ccc(C[n+]2cc([N-]C(=O)Nc3cc(NC(=O)Cc4ccccc4)cc(C(F)(F)F)c3)on2)nc1` [Example 25, (3-((5-(2-Amino-4-methylpyrimidin-5-yl)pyridin-2-yl)methyl)-1,2,3-oxadiazol-3-ium-5-yl)((3-(2-phenylacetamido)-5-(trifluoromethyl)phenyl)carbamoyl)amide], the pEC50 was 4.70 to 6.00. Consider `NCc1ccc(CC(=O)Nc2cc(NC(=O)[N-]c3c[n+](Cc4ccccn4)no3)cc(C(F)(F)F)c2)cc1` [Example 27, ((3-(2-(4-(Aminomethyl)phenyl)acetamido)-5-(trifluoromethyl)phenyl)carbamoyl)(3-(pyridin-2-ylmethyl)-1,2,3-oxadiazol-3-ium-5-yl)amide], for which the pEC50 was 4.70 to 6.00. As to `O=C(Cc1ccccc1)Nc1cc(NC(=O)[N-]c2c[n+](Cc3ccccc3)no2)cc(C(F)(F)F)c1` [Example 28, (3-Benzyl-1,2,3-oxadiazol-3-ium-5-yl)((3-(2-phenylacetamido)-5-(trifluoro-methyl)phenyl)carbamoyl)amide], the pEC50 is 4.70 to 6.00. On to `O=C([N-]c1c[n+](Cc2ccccn2)no1)Nc1cc(NC(=O)c2ccc3[nH]cnc3c2)cc(C(F)(F)F)c1` [Example 29, ((3-(1H Benzo[d]imidazole-5-carboxamido)-5-(trifluoromethyl)phenyl)-carbamoyl)(3-(pyridin-2-ylmethyl)-1,2,3-oxadiazol-3-ium-5-yl)amide], for which the pEC50 is 4.70 to 6.00. As for `O=C([N-]c1c[n+](Cc2ccccn2)no1)Nc1cc(NC(=O)C2CCCc3cn[nH]c32)cc(C(F)(F)F)c1` (stereo not drawn) [Example 38, (3-(Pyridin-2-ylmethyl)-1,2,3-oxadiazol-3-ium-5-yl)((3-(4,5,6,7-tetrahydro-1H-indazole-7-carboxamido)-5-(trifluoromethyl)phenyl)carbamoyl)amide], the pEC50 is 4.70 to 6.00.
